Experimental findings from patent publication US20260364030A1, “NOVEL SELECTIVE INHIBITORS OF LYSYL OXIDASES” (Syntara Limited, priority 2022, published 2026) are described below.

What all share (type): biochemical
In one experiment the target is T1, Bovine LOX (Bos taurus, UniProt P33072).
T1 sequence (P33072 170-418): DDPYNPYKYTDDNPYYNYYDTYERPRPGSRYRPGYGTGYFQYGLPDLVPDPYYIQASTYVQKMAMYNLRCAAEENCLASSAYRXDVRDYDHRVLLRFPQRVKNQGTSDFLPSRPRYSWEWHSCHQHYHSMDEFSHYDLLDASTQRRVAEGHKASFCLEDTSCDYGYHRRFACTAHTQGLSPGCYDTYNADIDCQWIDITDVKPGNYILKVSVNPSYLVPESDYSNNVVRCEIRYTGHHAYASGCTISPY
Put plainly: LOX inhibition, hydrogen peroxide Amplex Red oxidation assay. The method, then:
LOX and LOXL protein family members can be acquired as recombinant active proteins from commercial sources, or extracted from animal tissues like bovine aorta, tendons, pig skin; or prepared from cell cultures. The inhibitory effects of the compounds of the present invention were tested against the given LOX or LOXL preparation using a method based on the detection of hydrogen peroxide with an Amplex Red oxidation assay [Zhou et al, 1997]. The assay was developed using either 384 or 96 well format. Briefly, in a standard black, clear bottom 384 well plate assay 25 µL of a dilution of any of the isoenzymes and orthologues in 1.2 M urea, 50 mM sodium borate buffer (pH 8.2) were added into each well in the presence of […] and 0.5 mM pargyline (to inhibit SSAO and MAO-B and MAO-A, respectively; not necessary if the enzyme is from a recombinant or purified form). […] of a reaction mixture containing twice the KM concentration of putrescine (Sigma Aldrich, e.g. 20 mM for LOX and LOXL1 or 10 mM for LOXL2 and 4 mM for LOXL3 and LOXL4), 120 µM Amplex Red (Thermo Fisher Scientific) and 1.5 U/mL horseradish peroxidase (Sigma Aldrich) prepared in 1.2 M urea, 50 mM sodium borate buffer (pH 8.2) were then added to the corresponding wells. The above volumes were doubled in the case of 96 wells plate. The fluorescence (RFU) was read every 2.5 min for 30 min at 37 °C, excitation 544 nm and emission 590 (Optima; BMG labtech). The slope/min of the kinetics for each well was calculated using MARS data analysis software (BMG labtech) and this value was used to deduce the IC50 value (Dotmatics). The ability of the inventive compounds to inhibit the amine oxidase activity of LOX and other family members is shown in Table 5.

Another experiment deals with T2, LOXL1 (Homo sapiens, UniProt Q08397).
T2 sequence (Q08397 96-574): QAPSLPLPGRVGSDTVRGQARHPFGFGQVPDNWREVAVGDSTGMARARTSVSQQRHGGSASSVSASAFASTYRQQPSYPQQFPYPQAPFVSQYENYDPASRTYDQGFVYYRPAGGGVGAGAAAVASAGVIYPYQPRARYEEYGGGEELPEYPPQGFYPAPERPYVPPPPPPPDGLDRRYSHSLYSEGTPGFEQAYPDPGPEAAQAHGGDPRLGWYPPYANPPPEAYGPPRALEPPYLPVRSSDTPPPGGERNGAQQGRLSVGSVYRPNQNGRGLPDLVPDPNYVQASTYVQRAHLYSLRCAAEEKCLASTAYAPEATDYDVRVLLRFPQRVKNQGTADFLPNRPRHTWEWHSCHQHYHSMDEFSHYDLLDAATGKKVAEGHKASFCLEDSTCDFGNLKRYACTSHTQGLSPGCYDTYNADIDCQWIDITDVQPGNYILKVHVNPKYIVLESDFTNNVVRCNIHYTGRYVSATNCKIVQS
The experiment is described as follows: Jump dilution experiment, sustained inhibition of LOXL1. As to conditions: for LOXL1 enzyme activity recovery: at 21-30 min after jump dilution, 10×IC50, 40 min preincubation at 37 °C; for Sustained inhibition of LOXL1: jump dilution, 21-30 min. The method, then: (§1) Jump Dilution experiment: The assay was developed using a 96 well format and the starting enzyme concentration was set 100 times higher than for the inhibition studies. The enzyme was incubated for 40 minutes at 37 °C in presence of 10×IC50 concentrations of the test inhibitor. After the incubation, the mixture was diluted 50x in assay buffer, followed by a further 2× dilution in Amplex Red-horseradish peroxidase-putrescine reaction mix (as for Example 2) prior to the fluorescence measurement. Results were expressed in % recovery of the signal at 21-30 min by comparison with non-inhibited controls. LOXL1 is used as a surrogate for LOX owing to similar pharmacological behaviour.

Another experiment has as its target T3, LOXL2 (Homo sapiens, UniProt Q9Y4K0).
T3 sequence (Q9Y4K0 26-774): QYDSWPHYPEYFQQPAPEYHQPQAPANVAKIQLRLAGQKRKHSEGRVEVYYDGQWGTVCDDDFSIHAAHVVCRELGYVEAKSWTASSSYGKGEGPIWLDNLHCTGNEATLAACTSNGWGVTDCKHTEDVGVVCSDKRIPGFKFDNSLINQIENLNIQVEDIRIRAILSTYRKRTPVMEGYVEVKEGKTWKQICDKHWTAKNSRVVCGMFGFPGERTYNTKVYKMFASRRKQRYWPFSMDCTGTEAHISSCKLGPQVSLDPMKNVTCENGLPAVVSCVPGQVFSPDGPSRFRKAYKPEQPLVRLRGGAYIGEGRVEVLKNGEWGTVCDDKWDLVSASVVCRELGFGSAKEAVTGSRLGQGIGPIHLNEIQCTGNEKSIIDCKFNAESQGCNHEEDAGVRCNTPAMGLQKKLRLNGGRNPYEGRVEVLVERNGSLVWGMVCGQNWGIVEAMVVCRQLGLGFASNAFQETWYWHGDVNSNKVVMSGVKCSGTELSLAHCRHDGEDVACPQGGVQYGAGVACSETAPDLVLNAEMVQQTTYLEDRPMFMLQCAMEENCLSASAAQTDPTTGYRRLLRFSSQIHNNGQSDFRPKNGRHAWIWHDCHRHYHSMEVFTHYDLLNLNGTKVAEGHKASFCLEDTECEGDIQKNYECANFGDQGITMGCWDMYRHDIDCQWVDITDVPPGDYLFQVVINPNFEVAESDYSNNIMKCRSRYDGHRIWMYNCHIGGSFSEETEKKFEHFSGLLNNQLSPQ
The experiment is described as follows: Jump dilution experiment, sustained inhibition of LOXL2. As to conditions: for LOXL2 enzyme activity recovery: at 21-30 min after jump dilution, 10×IC50, 40 min preincubation at 37 °C; for Sustained inhibition of LOXL2: jump dilution, 21-30 min. Here is the method:
as §1

Where [1] appears, read: 30 min incubation with enzyme at 37 °C.

Each structure is given as a SMILES string.

By IC50 is commonly meant the concentration that inhibits the measured activity by half. Low values mean higher potency, high ones lower potency. As for `NC/C(=C\F)CS(=O)(=O)c1ccccc1` [Compound 1, (E)-3-fluoro-2-((phenylsulfonyl)methyl)prop-2-en-1-amine], the concentration for half-maximal inhibition (IC50) against Bovine LOX (setting [1]) amounted to 10 µM. The 50% inhibitory concentration (IC50) against Bovine LOX (2 h incubation with enzyme at 37 °C) is under 5 µM. Besides, at LOXL1, the “LOXL1 enzyme activity recovery” value turned out to be 2.5% and the “Sustained inhibition of LOXL1” value is reported as “sustained inhibition”. Besides, at LOXL2, the “LOXL2 enzyme activity recovery” value turned out to be 2.5% and the “Sustained inhibition of LOXL2” value was “sustained inhibition”.

In the case of `N#CCCN` [BAPN, β-aminopropionitrile, reference compound], on Bovine LOX (setting [1]), half-maximal inhibition (IC50) was put at 2.3 µM. Also, on LOXL1, the “LOXL1 enzyme activity recovery” value amounted to 0.3% and the “Sustained inhibition of LOXL1” value is on record as “sustained inhibition”. Further, at LOXL2, the “LOXL2 enzyme activity recovery” value is recorded as 11.2% and the “Sustained inhibition of LOXL2” value is “sustained inhibition”.
